Test results taken from patent publication US20240150334A1, “HSD17B13 INHIBITORS AND/OR DEGRADERS” (Pfizer Inc., priority 2022, published 2024).
Counter-ions that a name gives are not always drawn.

These compounds were tested against wild type human HSD17B13 (Homo sapiens (Human), UniProt Q7Z5P4) (assay: HEK_Beta-Est LCMS_IC50_Tekcel, whole-cell HEK-HSD17B13 inhibition assay, estrone production by LCMS). Conditions: geometric mean, HEK cells stably expressing wild type human HSD17B13, 25 μM FAC beta-estradiol, read-out: HEK_Beta-Est LCMS_IC50—Tekcel GMean IC50.
wild type human HSD17B13, sequence (Q7Z5P4 20-300): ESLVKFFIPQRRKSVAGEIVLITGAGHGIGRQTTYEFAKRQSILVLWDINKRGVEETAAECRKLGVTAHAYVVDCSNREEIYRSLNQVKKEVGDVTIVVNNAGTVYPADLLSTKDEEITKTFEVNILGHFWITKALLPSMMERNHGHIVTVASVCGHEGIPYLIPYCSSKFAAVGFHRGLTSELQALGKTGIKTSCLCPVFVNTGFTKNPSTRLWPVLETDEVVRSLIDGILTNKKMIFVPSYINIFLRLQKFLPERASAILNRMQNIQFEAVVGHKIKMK
Assay type: cell-based
Procedure: HEK_Beta-Est LCMS_IC50_Tekcel
Inhibition potency of test compounds was determined using a whole-cell HEK-HSD17B13 inhibition assay, utilizing a LCMS readout.
HSD17B13 uses the oxidized form of nicotinamide adenine dinucleotide (NAD+) as a cofactor during metabolism of beta-estradiol (substrate), converting NAD+ to the reduced form (NADH) and beta-estradiol to its product (estrone). Estrone production is quantified by LCMS, and used as a measure of HSD17B13 enzyme activity.
([…]: 5% CO2). […] Growth media was then removed from the cell plates and replaced with 10 μL of 2×FAC test compound, and incubated for 1 hour (with lid) at 37° C. […] The reaction was incubated for 2 hours (with lid) at 37° C. […] Amount of product (estrone) was then quantified by LCMS. Data expressed as product area ratio (PAR) were then normalized to control wells using Activity Base (IDBS). Zero percent effect (ZPE) was defined as PAR generated from uninhibited HSD17B13 (vehicle control).

IC50 [nM] | Structure (SMILES)
120 | O=C(NC[C@H]1CC[C@H](n2cc3ccc(-c4ncns4)cc3n2)CC1)c1cc(F)c(O)c(F)c1 [Example 82, 3,5-difluoro-4-hydroxy-N-({(1r,4r)-4-[6-(1,2,4-thiadiazol-5-yl)-2H-indazol-2-yl]cyclohexyl}methyl) benzamide]
94 | O=C(NC[C@H]1CC[C@H](n2cc3ccc(-c4ccns4)cc3n2)CC1)c1cc(F)c(O)c(F)c1 [Example 83, 3,5-difluoro-4-hydroxy-N-({(1r,4r)-4-[6-(1,2-thiazol-5-yl)-2H-indazol-2-yl]cyclohexyl}methyl) benzamide]
390 | O=C(NC[C@H]1CC[C@H](n2cc3ccc(-c4csc5cncn45)cc3n2)CC1)c1cc(F)c(O)c(F)c1 [Example 84, 3,5-difluoro-4-hydroxy-N-({(1r,4r)-4-[6-(imidazo[5,1-b][1,3]thiazol-3-yl)-2H-indazol-2-yl]cyclohexyl}methyl) benzamide, trifluoroacetate salt]
180 | O=C(NC[C@H]1CC[C@H](n2cc3ccc(-c4csc(C5CC5)n4)cc3n2)CC1)c1cc(F)c(O)c(F)c1 [Example 85, N-({(1r,4r)-4-[6-(2-cyclopropyl-1,3-thiazol-4-yl)-2H-indazol-2-yl]cyclohexyl}methyl)-3,5-difluoro-4-hydroxybenzamide]
270 | COc1nc(-c2ccc3cn([C@H]4CC[C@H](CNC(=O)c5cc(F)c(O)c(F)c5)CC4)nc3c2)nn1C [Example 86, 3,5-difluoro-4-hydroxy-N-({(1r,4r)-4-[6-(5-methoxy-1-methyl-1H-1,2,4-triazol-3-yl)-2H-indazol-2-yl]cyclohexyl}methyl) benzamide]
130 | Cc1cc(-c2ccc3cn([C@H]4CC[C@H](CNC(=O)c5cc(F)c(O)c(F)c5)CC4)nc3c2)ncn1 [Example 87, 3,5-difluoro-4-hydroxy-N-({(1r,4r)-4-[6-(6-methylpyrimidin-4-yl)-2H-indazol-2-yl]cyclohexyl}methyl) benzamide]
170 | Cc1ncc(-c2ccc3cn([C@H]4CC[C@H](CNC(=O)c5cc(F)c(O)c(F)c5)CC4)nc3c2)s1 [Example 88, 3,5-difluoro-4-hydroxy-N-({(1r,4r)-4-[6-(2-methyl-1,3-thiazol-5-yl)-2H-indazol-2-yl]cyclohexyl}methyl)benzamide]
130 | O=C(NC[C@H]1CC[C@H](n2cc3ccc(-c4ccn5nccc5c4)cc3n2)CC1)c1cc(F)c(O)c(F)c1 [Example 89, 3,5-difluoro-4-hydroxy-N-({(1r,4r)-4-[6-(pyrazolo[1,5-a]pyridin-5-yl)-2H-indazol-2-yl]cyclohexyl}methyl) benzamide, trifluoroacetate salt]
200 | Cc1cncc(-c2ccc3cn([C@H]4CC[C@H](CNC(=O)c5cc(F)c(O)c(F)c5)CC4)nc3c2)c1 [Example 90, 3,5-difluoro-4-hydroxy-N-({(1r,4r)-4-[6-(5-methylpyridin-3-yl)-2H-indazol-2-yl]cyclohexyl}methyl) benzamide, trifluoroacetate salt]
280 | O=C(NC[C@H]1CC[C@H](n2cc3ccc(-c4ncc(C(F)F)s4)cc3n2)CC1)c1cc(F)c(O)c(F)c1 [Example 91, N-{[(1r,4r)-4-{6-[5-(difluoromethyl)-1,3-thiazol-2-yl]-2H-indazol-2-yl}cyclohexyl]methyl}-3,5-difluoro-4-hydroxybenzamide]
130 | Cn1ncc(-c2ccc3cn([C@H]4CC[C@H](CNC(=O)c5cc(F)c(O)c(F)c5)CC4)nc3c2)n1 [Example 92, 3,5-difluoro-4-hydroxy-N-({(1r,4r)-4-[6-(2-methyl-2H-1,2,3-triazol-4-yl)-2H-indazol-2-yl]cyclohexyl}methyl)benzamide]
180 | O=C(NC[C@H]1CC[C@H](n2cc3ccc(-c4cc(C5CC5)ncn4)cc3n2)CC1)c1cc(F)c(O)c(F)c1 [Example 93, N-({(1r,4r)-4-[6-(6-cyclopropylpyrimidin-4-yl)-2H-indazol-2-yl]cyclohexyl}methyl)-3,5-difluoro-4-hydroxybenzamide]
140 | Cc1nc(-c2ccc3cn([C@H]4CC[C@H](CNC(=O)c5cc(F)c(O)c(F)c5)CC4)nc3c2)cs1 [Example 94, 3,5-difluoro-4-hydroxy-N-({(1r,4r)-4-[6-(2-methyl-1,3-thiazol-4-yl)-2H-indazol-2-yl]cyclohexyl}methyl) benzamide]
240 | COc1ccnc(-c2ccc3cn([C@H]4CC[C@H](CNC(=O)c5cc(F)c(O)c(F)c5)CC4)nc3c2)n1 [Example 95, 3,5-difluoro-4-hydroxy-N-({(1r,4r)-4-[6-(4-methoxypyrimidin-2-yl)-2H-indazol-2-yl]cyclohexyl}methyl)benzamide]
85 | O=C(NC[C@H]1CC[C@H](n2cc3ccc(-c4cncs4)cc3n2)CC1)c1cc(F)c(O)c(F)c1 [Example 96, 3,5-difluoro-4-hydroxy-N-({(1r,4r)-[6-(1,3-thiazol-5-yl)-2H-indazol-2-yl]cyclohexyl}methyl)benzamide]
300 | O=C(NC[C@H]1CC[C@H](n2cc3ccc(-c4ncc5cc[nH]c5n4)cc3n2)CC1)c1cc(F)c(O)c(F)c1 [Example 97, 3,5-difluoro-4-hydroxy-N-({(1r,4r)-4-[6-(7H-pyrrolo[2,3-d]pyrimidin-2-yl)-2H-indazol-2-yl]cyclohexyl}methyl) benzamide]
110 | O=C(NC[C@H]1CC[C@H](n2cc3ccc(-c4ccsn4)cc3n2)CC1)c1cc(F)c(O)c(F)c1 [Example 98, 3,5-difluoro-4-hydroxy-N-({(1r,4r)-4-[6-(1,2-thiazol-3-yl)-2H-indazol-2-yl]cyclohexyl}methyl) benzamide]
220 | COc1ccc(-c2ccc3cn([C@H]4CC[C@H](CNC(=O)c5cc(F)c(O)c(F)c5)CC4)nc3c2)nc1 [Example 99, 3,5-difluoro-4-hydroxy-N-({(1r,4r)-4-[6-(5-methoxy-pyridin-2-yl)-2H-indazol-2-yl]cyclohexyl}methyl) benzamide, trifluoroacetate salt]
65 | O=C(NC[C@H]1CC[C@H](n2cc3ccc(-c4cnsc4)cc3n2)CC1)c1cc(F)c(O)c(F)c1 [Example 100, 3,5-difluoro-4-hydroxy-N-({(1r,4r)-4-[6-(1,2-thiazol-4-yl)-2H-indazol-2-yl]cyclohexyl}methyl)benzamide]
140 | O=C(NC[C@H]1CC[C@H](n2cc3ccc(-c4ncc5c(n4)COC5)cc3n2)CC1)c1cc(F)c(O)c(F)c1 [Example 101, N-({(1r,4r)-4-[6-(5,7-dihydrofuro[3,4-d]pyrimidin-2-yl)-2H-indazol-2-yl]cyclohexyl}methyl)-3,5-difluoro-4-hydroxybenzamide]
200 | Cc1nnc(-c2ccc3cn([C@H]4CC[C@H](CNC(=O)c5cc(F)c(O)c(F)c5)CC4)nc3c2)s1 [Example 102, 3,5-difluoro-4-hydroxy-N-({(1r,4r)-4-[6-(5-methyl-1,3,4-thiadiazol-2-yl)-2H-indazol-2-yl]cyclohexyl}methyl) benzamide, ammonium salt]
360 | O=C(NC[C@H]1CC[C@H](n2cc3ccc(-c4cn5ccccc5n4)cc3n2)CC1)c1cc(F)c(O)c(F)c1 [Example 103, 3,5-difluoro-4-hydroxy-N-({(1r,4r)-4-[6-(imidazo[1,2-a]pyridin-2-yl)-2H-indazol-2-yl]cyclohexyl}methyl) benzamide, trifluoroacetate salt]
370 | Cn1cc(-c2ccc3cn([C@H]4CC[C@H](CNC(=O)c5cc(F)c(O)c(F)c5)CC4)nc3c2)ccc1=O [Example 104, 3,5-difluoro-4-hydroxy-N-({(1r,4r)-4-[6-(1-methyl-6-oxo-1,6-dihydropyridin-3-yl)-2H-indazol-2-yl]cyclohexyl}methyl) benzamide]
370 | O=C(NC[C@H]1CC[C@H](n2cc3ccc(-c4ncc(C5CC5)s4)cc3n2)CC1)c1cc(F)c(O)c(F)c1 [Example 105, N-({(1r,4r)-4-[6-(5-cyclopropyl-1,3-thiazol-2-yl)-2H-indazol-2-yl]cyclohexyl}methyl)-3,5-difluoro-4-hydroxybenzamide]
150 | COc1cc(-c2ccc3cn([C@H]4CC[C@H](CNC(=O)c5cc(F)c(O)c(F)c5)CC4)nc3c2)ccn1 [Example 106, 3,5-difluoro-4-hydroxy-N-({(1r,4r)-4-[6-(2-methoxypyridin-4-yl)-2H-indazol-2-yl]cyclohexyl}methyl) benzamide, trifluoroacetate salt]
160 | Cc1nsc(-c2ccc3cn([C@H]4CC[C@H](CNC(=O)c5cc(F)c(O)c(F)c5)CC4)nc3c2)n1 [Example 107, 3,5-difluoro-4-hydroxy-N-({(1r,4r)-4-[6-(3-methyl-1,2,4-thiadiazol-5-yl)-2H-indazol-2-yl]cyclo-hexyl}methyl) benzamide]
140 | COc1ccc(-c2ccc3cn([C@H]4CC[C@H](CNC(=O)c5cc(F)c(O)c(F)c5)CC4)nc3c2)cn1 [Example 108, 3,5-difluoro-4-hydroxy-N-({(1r,4r)-4-[6-(6-methoxy-pyridin-3-yl)-2H-indazol-2-yl]cyclohexyl}methyl) benzamide, trifluoroacetate salt]
170 | COc1nccc(-c2ccc3cn([C@H]4CC[C@H](CNC(=O)c5cc(F)c(O)c(F)c5)CC4)nc3c2)n1 [Example 109, 3,5-difluoro-4-hydroxy-N-({(1r,4r)-4-[6-(2-methoxy-pyrimidin-4-yl)-2H-indazol-2-yl]cyclohexyl}methyl) benzamide]
